From article PMC7957578, “N-(1,3,4-Oxadiazol-2-yl)Benzamides as Antibacterial Agents against Neisseria gonorrhoeae” (International Journal of Molecular Sciences, 2021)
Values after ≈ are worked out from the molar mass of the structure shown. Like-named read-outs stand apart in the source and are kept apart here.

What was measured:
[1] = system: N. gonorrhoeae strain 181; assay: MIC by broth microdilution against N. gonorrhoeae strain 181; format: cell-based, Neisseria gonorrhoeae; settings: Neisseria gonorrhoeae; N. gonorrhoeae strain 181; read-out: MIC
Experimental: (§1) Briefly, bacteria were grown overnight on chocolate agar II at 37° C in the presence of 5% CO2. Afterwards, a bacterial suspension equivalent to 1.0 McFarland standard was prepared and diluted in brucella broth supplemented with yeast extract, neopeptone, hematin, pyridoxal, and NAD. Test agents were added in the first row of the 96-well plates and serially diluted along the plates. Plates were then incubated at 37° C in the presence of 5% CO2 for 24 h. […] Plates were then incubated at 37 ° C in the presence of 5% CO2 for 24 h. The MBC was categorized as the lowest concentration that reduced bacterial growth by 99.9% [45, 46, 47].

[2] = system: human colorectal cells (Caco-2); assay: In vitro cytotoxicity, MTS assay; format: cell-based
Experimental: HSGN-237 and -238 were assayed for potential cytotoxicity against a human colorectal adenocarcinoma (Caco-2) cell line, as described previously. Briefly, tested compounds were incubated with caco-2 cells for 24 and 48 h. Then, the cells were incubated with MTS (3-(4,5-dimethylthiazol-2-yl)-5-(3-carboxymethoxyphenyl)-2-(4-sulfophenyl)-2H-tetrazolium) reagent for 4 h before measuring the absorbance values (OD490).
Figure 2 In vitro cytotoxicity assessment of HSGN-237 and -238 (tested in triplicate) against human colorectal cells (Caco-2) after (A) 24 h, and (B) 48 h, using the 3-(4,5-dimethylthiazol-2-yl)-5-(3-carboxymethoxyphenyl)-2-(4-sulfophenyl)-2H-tetrazolium (MTS) assay. Results are presented as percent viable cells relative to DMSO (negative control). Error bars represent standard deviation values. A two-way ANOVA, with post hoc Dunnet’s multiple comparisons test, determined the statistical difference between the values obtained for the compound and DMSO. Asterisks denote statistically significant differences between treatments of cells with either HSGN-237 or -238 as compared to DMSO-treated cells. The experiment was repeated 3 independent times.

N. gonorrhoeae 166 = assay: MIC/MBC against N. gonorrhoeae clinical isolate 166; format: cell-based; settings: Neisseria gonorrhoeae
Experimental: as §1

VRE. faecium ATCC 700221 = assay: MIC/MBC (CLSI broth microdilution) against VRE faecium ATCC 700221; format: cell-based; settings: Enterococcus, VRE faecium ATCC 700221
Experimental: (§2) The minimum inhibitory concentrations (MICs) of the tested compounds and control drugs, linezolid, vancomycin, and gentamicin, were determined using the broth microdilution method according to the guidelines outlined by the Clinical and Laboratory Standards Institute (CLSI) against clinically relevant bacterial (Staphylococcus aureus, MRSA, Escherichia coli, Enterococcus faecalis and Enterococcus faecium strains. S. aureus, MRSA, E. coli, Enterococcus faecalis and Enterococcus faecium were grown aerobically overnight on tryptone soy agar (TSA) plates at 37° C. Afterwards, a bacterial solution equivalent to 0.5 McFarland standard was prepared and diluted in cation-adjusted Mueller–Hinton broth (CAMHB) (for S. aureus, MRSA, and E. coli) to achieve a bacterial concentration of about 5 × 10^5 CFU/mL. Enterococcus faecalis and Enterococcus faecium 0.5 McFarland standard solution was diluted in tryptone soy broth (TSB) to achieve a bacterial concentration of about 5 × 10^5 CFU/mL. Compounds and control drugs were added in the first row of 96-well plates and serially diluted with the corresponding media containing bacteria. Plates were then incubated as previously described. […] The minimum bactericidal concentration (MBC) was tested by spotting 4 µL from wells with no growth onto TSA plates. Plates were incubated at 37 ° C for at least 18 h before recording the MBC. The MBC was categorized as the lowest concentration that reduced bacterial growth by 99.9% [45, 46, 47].

N. gonorrhoeae WHO L = assay: MIC/MBC against N. gonorrhoeae WHO L reference strain; format: cell-based; settings: Neisseria gonorrhoeae
Experimental: as §1

N. gonorrhoeae 165 = assay: MIC/MBC against N. gonorrhoeae clinical isolate 165; format: cell-based; settings: Neisseria gonorrhoeae
Experimental: as §1

VRE. faecalis ATCC 51299 = assay: MIC/MBC (CLSI broth microdilution) against VRE faecalis ATCC 51299; format: cell-based; settings: Enterococcus, VRE faecalis ATCC 51299
Experimental: as §2

[3] = system: L. monocytogenes ATCC 19115; assay: MIC/MBC (CLSI broth microdilution) against L. monocytogenes ATCC 19115; format: cell-based; settings: Listeria monocytogenes, ATCC19115, L. monocytogenes ATCC 19115
[4] = system: panel drug-resistant pathogenic N. gonorrhoeae strains; assay: MIC/MBC against a panel of drug-resistant N. gonorrhoeae strains; format: cell-based, Neisseria gonorrhoeae; settings: MBC the same as or one-fold higher than MIC
VRE. faecalisATCC 51575 = assay: MIC/MBC (CLSI broth microdilution) against VRE faecalis ATCC 51575; format: cell-based; settings: Enterococcus, VRE faecalis ATCC 51575
Experimental: as §2

N. gonorrhoeae 197 = assay: MIC/MBC against N. gonorrhoeae clinical isolate 197; format: cell-based; settings: Neisseria gonorrhoeae
Experimental: as §1

MRSA USA300 = assay: MIC/MBC (CLSI broth microdilution) against MRSA USA300; format: cell-based, methicillin-resistant Staphylococcus aureus; settings: Staphylococcus aureus, MRSA USA300
Experimental: as §2

E. faecalis ATCC 29212 = assay: MIC/MBC (CLSI broth microdilution) against E. faecalis ATCC 29212; format: cell-based; settings: Enterococcus faecalis, ATCC29212, E. faecalis ATCC 29212
Experimental: as §2

N. gonorrhoeae = assay: MIC against N. gonorrhoeae in presence of fetal bovine serum; format: cell-based; settings: Neisseria gonorrhoeae, 24 h
[5] = system: tested bacterial strains (Table 3); assay: MBC versus MIC against the panel of Gram-positive and Gram-negative pathogens; format: cell-based; settings: MBCs more than three-fold higher than MICs, strains of Table 3
Experimental: While the focus of these new N-(1,3,4-oxadiazol-2-yl)benzamides is towards N. gonorrhoeae, we proceeded to test their activity against other Gram-positive and Gram-negative pathogens. Intriguingly, HSGN-235, HSGN-237, and HSGN-238 had potent activity against the tested Gram-positive bacterial pathogens. For instance, all three compounds had potent activity against the staphylococcal strains, with MICs ranging from 0.25 to 1 µg/mL (Table 3). Furthermore, HSGN-235, HSGN-237, and HSGN-238 maintained potent activity against clinically relevant Gram-positive bacterial pathogens such as vancomycin-resistant enterococci (VRE) and Listeria monocytogenes (Table 3). Additionally, we moved to test if HSGN-235, HSGN-237, and HSGN-238 were active against other Gram-negative bacterial pathogens. […] This lack of activity against Gram-negative bacteria appears to be due to HSGN-235, HSGN-237, and HSGN-238 being a substrate for efflux.
The minimum inhibitory concentrations (MICs) of the tested compounds and control drugs, linezolid, vancomycin, and gentamicin, were determined using the broth microdilution method according to the guidelines outlined by the Clinical and Laboratory Standards Institute (CLSI) against clinically relevant bacterial (Staphylococcus aureus, MRSA, Escherichia coli, Enterococcus faecalis and Enterococcus faecium strains. S. aureus, MRSA, E. coli, Enterococcus faecalis and Enterococcus faecium were grown aerobically overnight on tryptone soy agar (TSA) plates at 37° C. Afterwards, a bacterial solution equivalent to 0.5 McFarland standard was prepared and diluted in cation-adjusted Mueller–Hinton broth (CAMHB) (for S. aureus, MRSA, and E. coli) to achieve a bacterial concentration of about 5 × 10^5 CFU/mL. Enterococcus faecalis and Enterococcus faecium 0.5 McFarland standard solution was diluted in tryptone soy broth (TSB) to achieve a bacterial concentration of about 5 × 10^5 CFU/mL. Compounds and control drugs were added in the first row of 96-well plates and serially diluted with the corresponding media containing bacteria. […]

N. gonorrhoeae 194 = assay: MIC/MBC against N. gonorrhoeae clinical isolate 194; format: cell-based; settings: Neisseria gonorrhoeae
Experimental: as §1

[6] = system: E. coli BW25113 (wild-type strain); assay: MIC/MBC (CLSI broth microdilution) against E. coli BW25113 wild type; format: cell-based, Escherichia coli; settings: E. coli BW25113 wild-type strain
Experimental: as §2

[7] = system: E. coli JW55031 (TolC Mutant); assay: MIC/MBC (CLSI broth microdilution) against E. coli TolC mutant; format: cell-based; settings: Escherichia coli
Experimental: as §2

N. gonorrhoeae 200 = assay: MIC/MBC against N. gonorrhoeae clinical isolate 200; format: cell-based; settings: Neisseria gonorrhoeae
Experimental: as §1

S. aureus ATCC 25923 = assay: MIC/MBC (CLSI broth microdilution) against S. aureus ATCC 25923; format: cell-based; settings: Staphylococcus aureus, ATCC25923, S. aureus ATCC 25923
Experimental: as §2

Caco-2 bilayers = assay: Caco-2 bidirectional permeability assay; format: in vitro ADME, human; settings: Caco-2 permeability classification
Excerpt: Oral bioavailability is a highly important consideration when developing bioactive molecules as therapeutic agents. A critical factor of oral bioavailability is human intestinal absorption. The Caco-2 bidirectional permeability assay is the most widely used in vitro model for predicting if a bioactive molecule can have adequate systemic absorption. Thus, we selected HSGN-238 to act as a model to analyze the drug-like properties of newly synthesized N-(1,3,4-oxadiazol-2-yl)benzamides.
Assay and data analysis were performed by Eurofins Panlabs (MO, USA) according to a previously reported protocol. The apparent permeability coefficient (Papp) of the tested agents was calculated using the equation below: Papp(cm/s)=VR∗CR,end/Δt∗1/A∗(CD,mid−CR,mid), where VR is the volume of the receiver chamber. CR,end is the concentration of the test compound in the receiver chamber at the end time point, Δt is the incubation time, and A is the surface area of the cell monolayer. CD,mid is the calculated mid-point concentration of the test compound in the donor side, which is the mean value of the donor concentration at 0 minutes and the donor concentration at the end time point. CR,mid is the mid-point concentration of the test compound in the receiver side, which is one half of the receiver concentration at the end time point. Concentrations of the test compound were expressed as peak areas of the test compound.

## O=C(Nc1nnc(-c2cccc(F)c2)o1)c1ccc(OC(F)(F)F)cc1 [HSGN-237, N-(5-(3-Fluorophenyl)-1,3,4-oxadiazol-2-yl)-4-(trifluoromethoxy)benzamide]
[1]
  MIC: 0.125 µg/mL (≈ 0.34 µM)
[2]; Caco-2 cells, 24 and 48 h, MTS assay
  non-toxic concentration: higher than 64 µg/mL
[2]; Caco-2 non-toxic concentration versus corresponding MIC
  non-toxic concentration relative to MIC against N. gonorrhoeae: 512 times
N. gonorrhoeae 166
  MBC: 0.06 µg/mL (≈ 0.163 µM)
  MIC: 0.06 µg/mL (≈ 0.163 µM)
VRE. faecium ATCC 700221; read-out: MBC
  MBC: 8 µg/mL (≈ 21.8 µM)
VRE. faecium ATCC 700221; read-out: MIC
  MIC: 0.5 µg/mL (≈ 1.36 µM)
N. gonorrhoeae WHO L
  MBC: 0.06 µg/mL (≈ 0.163 µM)
  MIC: 0.06 µg/mL (≈ 0.163 µM)
N. gonorrhoeae 165
  MBC: 0.125 µg/mL (≈ 0.34 µM)
  MIC: 0.06 µg/mL (≈ 0.163 µM)
VRE. faecalis ATCC 51299; read-out: MBC
  MBC: 16 µg/mL (≈ 43.6 µM)
VRE. faecalis ATCC 51299; read-out: MIC
  MIC: 0.5 µg/mL (≈ 1.36 µM)
[3]; read-out: MBC
  MBC: 64 µg/mL (≈ 174 µM)
[3]; read-out: MIC
  MIC: 0.5 µg/mL (≈ 1.36 µM)
[4]
  type of activity from MBC versus MIC: bactericidal activity
VRE. faecalisATCC 51575; read-out: MBC
  MBC: > 64 µg/mL
VRE. faecalisATCC 51575; read-out: MIC
  MIC: 1 µg/mL (≈ 2.72 µM)
N. gonorrhoeae 197
  MBC: 0.06 µg/mL (≈ 0.163 µM)
  MIC: 0.03 µg/mL (≈ 0.0817 µM)
MRSA USA300; read-out: MBC
  MBC: 32 µg/mL (≈ 87.1 µM)
MRSA USA300; read-out: MIC
  MIC: 0.25 µg/mL (≈ 0.681 µM)
E. faecalis ATCC 29212; read-out: MBC
  MBC: > 64 µg/mL
E. faecalis ATCC 29212; read-out: MIC
  MIC: 1 µg/mL (≈ 2.72 µM)
N. gonorrhoeae; 1% FBS added to the media
  MIC: 0.125 µg/mL
N. gonorrhoeae; 5% FBS added to the media
  MIC: 1 µg/mL
N. gonorrhoeae; 10% FBS added to the media
  MIC: 4 µg/mL
[5]
  type of activity from MBC versus MIC: bacteriostatic agents
N. gonorrhoeae 194
  MBC: 0.06 µg/mL (≈ 0.163 µM)
  MIC: 0.03 µg/mL (≈ 0.0817 µM)
[6]
  MIC: >8 µg/mL
[6]; Escherichia coli, read-out: MBC
  MBC: > 8 µg/mL
[6]; Escherichia coli, read-out: MIC
  MIC: > 8 µg/mL
[7]
  MBC: 16 µg/mL (≈ 43.6 µM)
  MIC: 0.25 µg/mL (≈ 0.681 µM)
N. gonorrhoeae 200
  MBC: 0.06 µg/mL (≈ 0.163 µM)
  MIC: 0.06 µg/mL (≈ 0.163 µM)
S. aureus ATCC 25923; read-out: MBC
  MBC: > 64 µg/mL
S. aureus ATCC 25923; read-out: MIC
  MIC: 0.25 µg/mL (≈ 0.681 µM)

## CNC(=C[N+](=O)[O-])NCCSCc1ccc(CN(C)C)o1 [Ranitidine]
Caco-2 bilayers
  Notes (permeability class): Low Permeability Control
